Where a SMILES comes first, the peptide text is derived from it. Bridges are numbered along the chain shown (N, C = ends). [ ]: non-standard residue; d: D form. The star is where a group is joined. Threoninol(2S,3R) = C[C@@H](O)[C@H](CO)N*
How the values were obtained:
[1] = molecular target: Beta-2 adrenergic receptor (Homo sapiens, UniProt P07550); assay: DRUGMATRIX: Adrenergic beta2 radioligand binding (ligand: [3H] CGP-12177); assay type: cell membranes, Membrane; conditions: cho; Not Active = under 50% inhibition at 10 µM
[2] = DRUGMATRIX: Glutamate, NMDA, Phencyclidine radioligand binding (ligand: [3H] TCP); assay type: cell membranes, Rattus norvegicus, Wistar, Cerebral cortex, Membrane; conditions: Not Active = under 50% inhibition at 10 µM
[3] = molecular target: Tyrosine-protein kinase Lck (Homo sapiens, UniProt P06239); assay: DRUGMATRIX: Protein Tyrosine Kinase, LCK enzyme inhibition (substrate: Poly(Glu:Tyr)); assay type: cell-based, Insect cells; conditions: insect cells; Not Active = under 50% inhibition at 10 µM
[4] = molecular target: T1, Neuropeptide Y receptor type 2 (Homo sapiens, UniProt P49146); assay type: cell membranes, Membrane; conditions: kan-ts; note: in other assays of this panel Not Active means under 50% inhibition at 10 µM
T1 sequence (P49146 whole entry): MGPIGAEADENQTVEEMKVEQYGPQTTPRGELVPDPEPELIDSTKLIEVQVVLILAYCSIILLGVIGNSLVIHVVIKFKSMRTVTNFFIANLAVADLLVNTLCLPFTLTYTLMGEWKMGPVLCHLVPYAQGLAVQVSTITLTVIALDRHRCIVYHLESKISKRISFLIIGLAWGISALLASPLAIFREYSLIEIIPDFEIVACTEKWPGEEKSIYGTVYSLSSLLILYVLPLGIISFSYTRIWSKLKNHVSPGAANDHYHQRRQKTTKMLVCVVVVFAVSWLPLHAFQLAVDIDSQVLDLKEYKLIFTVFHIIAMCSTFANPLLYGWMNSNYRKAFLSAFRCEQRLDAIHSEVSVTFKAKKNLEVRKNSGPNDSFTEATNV

[5] = DRUGMATRIX: Glutamate, NMDA, Agonism radioligand binding (ligand: [3H] CGP-39653); assay type: cell membranes, Rattus norvegicus, Wistar, Cerebral cortex, Membrane; conditions: Not Active = under 50% inhibition at 10 µM
[6] = DRUGMATRIX: Imidazoline I2, Central radioligand binding (ligand: [3H] Idazoxan); assay type: cell membranes, Rattus norvegicus, Wistar, Cerebral cortex, Membrane; conditions: Not Active = under 50% inhibition at 10 µM
D(3) dopamine receptor = D(3) dopamine receptor (Homo sapiens, UniProt P35462); assay: DRUGMATRIX: Dopamine D3 radioligand binding (ligand: [3H] Spiperone); assay type: cell membranes, CHO, Membrane
D(3) dopamine receptor, sequence (P35462 whole entry): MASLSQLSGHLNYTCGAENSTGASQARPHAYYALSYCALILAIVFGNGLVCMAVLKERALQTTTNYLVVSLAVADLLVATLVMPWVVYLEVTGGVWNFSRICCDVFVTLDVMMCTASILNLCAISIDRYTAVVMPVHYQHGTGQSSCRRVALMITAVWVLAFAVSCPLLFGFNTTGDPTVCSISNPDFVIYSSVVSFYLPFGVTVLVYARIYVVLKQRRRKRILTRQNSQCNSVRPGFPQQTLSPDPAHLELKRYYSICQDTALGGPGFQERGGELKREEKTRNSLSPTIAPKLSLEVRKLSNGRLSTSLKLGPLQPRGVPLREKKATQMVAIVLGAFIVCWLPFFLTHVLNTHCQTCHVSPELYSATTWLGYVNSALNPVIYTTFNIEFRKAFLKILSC

Tyrosine-protein kinase Lck, sequence (P06239 whole entry): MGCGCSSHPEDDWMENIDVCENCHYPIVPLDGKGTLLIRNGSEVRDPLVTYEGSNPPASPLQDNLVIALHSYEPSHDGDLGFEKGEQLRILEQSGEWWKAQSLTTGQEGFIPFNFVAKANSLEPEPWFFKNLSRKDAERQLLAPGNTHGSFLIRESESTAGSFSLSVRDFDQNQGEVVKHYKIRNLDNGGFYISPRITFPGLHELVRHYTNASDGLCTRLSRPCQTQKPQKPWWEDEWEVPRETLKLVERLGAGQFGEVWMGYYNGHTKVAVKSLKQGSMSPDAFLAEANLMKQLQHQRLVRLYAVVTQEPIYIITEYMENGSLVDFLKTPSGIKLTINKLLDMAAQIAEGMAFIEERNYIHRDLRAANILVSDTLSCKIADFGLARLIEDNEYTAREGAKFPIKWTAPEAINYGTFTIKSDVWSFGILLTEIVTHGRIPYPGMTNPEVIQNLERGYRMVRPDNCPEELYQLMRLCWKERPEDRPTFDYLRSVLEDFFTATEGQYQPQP
Beta-2 adrenergic receptor, sequence (P07550 whole entry): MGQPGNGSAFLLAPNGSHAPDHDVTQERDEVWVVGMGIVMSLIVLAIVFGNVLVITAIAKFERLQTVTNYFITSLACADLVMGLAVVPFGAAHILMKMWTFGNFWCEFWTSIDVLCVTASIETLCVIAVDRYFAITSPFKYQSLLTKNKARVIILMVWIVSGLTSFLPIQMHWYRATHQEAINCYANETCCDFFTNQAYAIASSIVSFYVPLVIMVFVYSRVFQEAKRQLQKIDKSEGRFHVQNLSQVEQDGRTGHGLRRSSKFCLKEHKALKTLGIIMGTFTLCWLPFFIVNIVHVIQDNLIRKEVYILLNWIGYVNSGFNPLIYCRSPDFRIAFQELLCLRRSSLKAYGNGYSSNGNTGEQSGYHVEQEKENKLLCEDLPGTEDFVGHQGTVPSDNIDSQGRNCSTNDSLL

SMILES | IC50 [1] | IC50 [2] | Ki [2] | IC50 [3] | IC50 [4] | IC50 [5] | Ki [5] | IC50 [6] | Ki [6] | IC50 (D(3) dopamine receptor; cho) | Ki [1] | Ki [3] | Ki [4] | Ki (D(3) dopamine receptor; cho) | Ki (D(3) dopamine receptor) [nM] | IC50 (D(3) dopamine receptor; read-out: IC50) [nM]
COc1ccccc1C(=O)N1CCC(Cc2ccccc2)CC1 | Not Active | Not Active | Not Active | Not Active | Not Active | Not Active | Not Active | Not Active | Not Active | Not Active | – | – | – | – | – | –
Cc1ccccc1C(=O)N1CCC(Cc2ccccc2)CC1 | Not Active | Not Active | Not Active | Not Active | Not Active | Not Active | Not Active | Not Active | Not Active | Not Active | – | – | – | – | – | –
O=C1CC[C@H](N2C(=O)c3ccccc3C2=O)C(=O)N1 | Not Active | Not Active | Not Active | Not Active | Not Active | Not Active | Not Active | Not Active | Not Active | Not Active | – | – | – | – | – | –
N=C(Nc1ccccc1)Nc1ccccc1 | Not Active | Not Active | Not Active | Not Active | Not Active | Not Active | Not Active | Not Active | Not Active | Not Active | – | – | – | – | – | –
C[C@@H](O)[C@H](CO)NC(=O)[C@@H]1CSSC[C@H](NC(=O)[C@H](N)Cc2ccccc2)C(=O)N[C@@H](Cc2ccccc2)C(=O)N[C@H](Cc2c[nH]c3ccccc23)C(=O)N[C@@H](CCCCN)C(=O)N[C@@H]([C@@H](C)O)C(=O)N1 (H-[dF]CF[dW]KTC-{Threoninol(2S,3R)}; disulfide 2-7) | Not Active | Not Active | Not Active | Not Active | Not Active | Not Active | Not Active | Not Active | Not Active | Not Active | – | – | – | – | – | –
S=C=Nc1cccc2ccccc12 [1-NAPHTHYLISOTHIOCYANATE] | Not Active | Not Active | Not Active | Not Active | Not Active | Not Active | Not Active | Not Active | Not Active | Not Active | – | – | – | – | – | –
C[C@](O)(CS(=O)(=O)c1ccc(F)cc1)C(=O)Nc1ccc(C#N)c(C(F)(F)F)c1 [(R)-BICALUTAMIDE] | Not Active | Not Active | Not Active | Not Active | Not Active | Not Active | Not Active | Not Active | Not Active | Not Active | – | – | – | – | – | –
CCCC(=O)Nc1ccc(OCC(O)CNC(C)C)c(C(C)=O)c1 (centres undefined) [ACEBUTOLOL] | – | Not Active | Not Active | Not Active | Not Active | Not Active | Not Active | Not Active | Not Active | Not Active | – | – | – | – | – | –
CC(=O)Nc1ccc(O)cc1 [ACETAMINOPHEN] | Not Active | Not Active | Not Active | Not Active | Not Active | Not Active | Not Active | Not Active | Not Active | Not Active | – | – | – | – | – | –
COc1cc2c(c3oc(=O)c4c(c13)CCC4=O)[C@@H]1C=CO[C@@H]1O2 [AFLATOXIN] | Not Active | Not Active | Not Active | Not Active | Not Active | Not Active | Not Active | Not Active | Not Active | Not Active | Not Active | Not Active | Not Active | Not Active | – | –
N=C(N)NC(=O)c1nc(Cl)c(N)nc1N [AMILORIDE] | Not Active | Not Active | Not Active | Not Active | Not Active | Not Active | Not Active | Not Active | Not Active | Not Active | – | – | – | – | – | –
Cc1cc(=O)n(-c2ccccc2)n1C [ANTIPYRINE] | Not Active | Not Active | Not Active | Not Active | Not Active | Not Active | Not Active | Not Active | Not Active | Not Active | – | – | – | – | – | –
CN1C(=O)COc2c(C(=O)NC3CN4CCC3CC4)cc(Cl)cc21 (centres undefined) [AZASETRON] | Not Active | Not Active | Not Active | Not Active | Not Active | Not Active | Not Active | Not Active | Not Active | Not Active | – | – | – | – | – | –
C[C@H]1C[C@H]2[C@@H]3CCC4=CC(=O)C=C[C@]4(C)[C@@]3(Cl)[C@@H](O)C[C@]2(C)[C@@]1(O)C(=O)CO [BECLOMETHASONE] | Not Active | Not Active | Not Active | Not Active | Not Active | Not Active | Not Active | Not Active | Not Active | Not Active | – | – | – | – | – | –
CCOC(=O)[C@H](CCc1ccccc1)N[C@H]1CCc2ccccc2N(CC(=O)O)C1=O [BENAZEPRIL] | Not Active | Not Active | Not Active | Not Active | Not Active | Not Active | Not Active | Not Active | Not Active | Not Active | – | – | – | – | – | –
Nc1c(CC(=O)O)cccc1C(=O)c1ccc(Br)cc1 [BROMFENAC] | Not Active | Not Active | Not Active | Not Active | Not Active | Not Active | Not Active | Not Active | Not Active | Not Active | – | – | – | – | – | –
CCCCN1CCCCC1C(=O)Nc1c(C)cccc1C.Cl (centres undefined) [BUPIVACAINE HYDROCHLORIDE] | Not Active | Not Active | Not Active | Not Active | Not Active | Not Active | Not Active | Not Active | Not Active | Not Active | – | – | – | – | – | –
O=C1CC2(CCCC2)CC(=O)N1CCCCN1CCN(c2ncccn2)CC1 [BUSPIRONE] | Not Active | Not Active | Not Active | Not Active | Not Active | Not Active | Not Active | Not Active | Not Active | – | – | – | – | – | 15 | 44
C[C@@]12C(=O)OC(=O)[C@]1(C)[C@H]1CC[C@@H]2O1 [CANTHARIDIN] | Not Active | Not Active | Not Active | Not Active | Not Active | Not Active | Not Active | Not Active | Not Active | Not Active | – | – | – | – | – | –
O=NN(CCCl)C(=O)NCCCl [CARMUSTINE] | Not Active | Not Active | Not Active | Not Active | Not Active | Not Active | Not Active | Not Active | Not Active | Not Active | – | – | – | – | – | –
CC1=C(C(=O)O)N2C(=O)[C@@H](NC(=O)[C@H](N)c3ccccc3)[C@H]2SC1 [CEPHALEXIN ANHYDROUS] | Not Active | Not Active | Not Active | Not Active | Not Active | Not Active | Not Active | Not Active | Not Active | Not Active | – | – | – | – | – | –
